Data on 19 molecules can be found in patent publication US11420970B1 (NOVARTIS AG, priority 2019, dated 2022).

One experiment addresses NSD2 [1-1365] (Homo sapiens (Human), UniProt O96028). Kind of experiment: LC-MS/MS-based NSD2 enzymatic assay (SAH production). The note with it: NSD2 biochemical activity, class symbols; read-out: NSD2 IC50. Format: biochemical. The essentials: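 Full-length NSD2 [1-1365] (8 nM final) with 1 μM SAM and 400 nM mouse-liver nucleosome in Tris pH 8.0 buffer; inhibitor preincubated 20 min with enzyme/SAM before nucleosome addition. Reaction 90 min at room temperature, TFA-quenched; SAH quantified by LC-MS/MS against d4-SAH internal standard and SAH standard curve.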

The subject of experiment [1] is cellular H3K36me2 level in thyroid carcinoma cell line CGTH-W-1 (NSD2 E1099K). Kind of experiment: H3K36me2 cellular ELISA assay in CGTH-W-1 line. The note with it: Homo sapiens, CGTH-W-1, 72 h, read-out: H3K36me2 ELISA in CGTH-W-1. Format: cell-based. Here is the method: H3K36Me2 Cellular ELISA Assay in CGTH-W-1 Line
An ELISA (enzyme-linked immunosorbent assay) based assay was used to test the ability of candidate compound to reduce cellular H3K36me2 level in thyroid carcinoma cell line CGTH-W-1, carrying NSD2 E1099K gain of function mutation. CGTH-W-1 (DSMZ) cells are maintained in RPM11640 media with 10% FBS and 50 U/ml Penicillin-Streptomycin.
Cells were treated with tested compounds at the desired concentration for 72 hours.
Histone bound plates were washed and blocked with 5% BSA. […] The abundance of H3K36me2 and total H3 was measured by Chemiluminesce on a plate reader. Cell viability was monitored on a parallel seeded plate with CellTiter-Glo reagent (Promega #G7573).
(In an ELISA, binding on a coated surface is turned into a signal by an enzyme label.)

Experiment [2] concerns cellular H3K36me2 level in multiple myeloma cell line KMS11 (t(4;14)+). Briefly: H3K36me2 cellular ELISA assay in KMS11-Par line. The conditions noted are these: Homo sapiens, KMS-11; KMS11-Par line (t(4;14)+), 72 hours treatment, ELISA; read-out: H3K36me2 ELISA in KMS11-Par. Format: cell-based. The method, boiled down:
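KMS11 cells were seeded a day ahead at 1,250 per well in Opti-MEM with B-27/N2, then treated with compound for 72 h. Histones were acid-extracted with 0.4M HCl, and H3K36me2 and total H3 were read by chemiluminescent ELISA. Viability was checked with CellTiter-Glo on a parallel plate in maintenance media.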

NSD2 [1-1365], sequence (O96028 whole entry): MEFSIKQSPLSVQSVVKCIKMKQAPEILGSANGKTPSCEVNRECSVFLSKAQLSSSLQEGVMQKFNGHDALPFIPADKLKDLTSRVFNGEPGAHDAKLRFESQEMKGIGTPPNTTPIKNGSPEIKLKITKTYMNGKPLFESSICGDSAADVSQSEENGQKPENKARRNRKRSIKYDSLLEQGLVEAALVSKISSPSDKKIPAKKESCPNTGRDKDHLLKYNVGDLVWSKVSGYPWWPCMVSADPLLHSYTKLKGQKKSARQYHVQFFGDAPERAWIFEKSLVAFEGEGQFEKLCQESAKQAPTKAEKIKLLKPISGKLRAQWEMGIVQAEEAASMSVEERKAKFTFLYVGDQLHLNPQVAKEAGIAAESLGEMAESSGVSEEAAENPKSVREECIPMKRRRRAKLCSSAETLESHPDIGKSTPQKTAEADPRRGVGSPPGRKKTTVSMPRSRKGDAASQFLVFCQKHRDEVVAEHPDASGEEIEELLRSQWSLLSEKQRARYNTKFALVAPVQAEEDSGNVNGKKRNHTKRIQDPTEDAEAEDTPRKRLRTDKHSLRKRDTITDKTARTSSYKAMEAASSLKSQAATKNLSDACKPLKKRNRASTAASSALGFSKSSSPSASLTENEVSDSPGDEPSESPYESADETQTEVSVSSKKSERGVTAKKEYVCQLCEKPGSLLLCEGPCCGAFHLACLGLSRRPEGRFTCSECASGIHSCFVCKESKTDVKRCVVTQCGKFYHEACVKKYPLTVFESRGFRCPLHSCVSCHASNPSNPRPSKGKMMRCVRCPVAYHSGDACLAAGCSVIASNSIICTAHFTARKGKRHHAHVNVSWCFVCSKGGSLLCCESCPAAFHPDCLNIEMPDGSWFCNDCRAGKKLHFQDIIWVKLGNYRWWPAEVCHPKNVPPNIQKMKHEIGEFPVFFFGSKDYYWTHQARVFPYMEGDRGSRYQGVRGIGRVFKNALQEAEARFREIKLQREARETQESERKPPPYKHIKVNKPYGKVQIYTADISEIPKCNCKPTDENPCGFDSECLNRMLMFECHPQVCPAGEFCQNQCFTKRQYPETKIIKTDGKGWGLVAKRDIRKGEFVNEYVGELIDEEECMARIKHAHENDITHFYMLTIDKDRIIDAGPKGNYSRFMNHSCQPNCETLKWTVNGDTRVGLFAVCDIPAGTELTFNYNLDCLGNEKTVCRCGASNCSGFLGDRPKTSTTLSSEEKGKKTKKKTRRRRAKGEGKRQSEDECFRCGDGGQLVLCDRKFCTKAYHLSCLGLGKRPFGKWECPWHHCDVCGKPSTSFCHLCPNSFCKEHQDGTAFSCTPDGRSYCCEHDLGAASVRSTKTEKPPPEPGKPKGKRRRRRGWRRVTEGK

Take `CC(C)(C)C(=O)[C@@]1(N)CCCN(c2cnc(-c3ccc(F)c(F)c3)cc2Cn2cnc3c(N)ncnc32)C1` [Example 109, (R)-1-(3-amino-1-(4-((6-amino-9H-purin-9-yl)methyl)-6-(3,4-difluorophenyl)pyridin-3-yl)piperidin-3-yl)-2,2-dimethylpropan-1-one]: the IC50 at NSD2 [1-1365] is 10 to 1000 nM; in experiment [1] it was 2090 nM; in experiment [2], 2730 nM.
With `Cn1ccc(C(=O)C2(N)CCCN(c3cnc(-c4ccc(F)c(F)c4)cc3Cn3cnc4c(N)ncnc43)C2)n1` (stereo not drawn) [Example 110, (3-amino-1-(4-((6-amino-9H-purin-9-yl)methyl)-6-(3,4-difluorophenyl)pyridin-3-yl)piperidin-3-yl)(1-methyl-1H-pyrazol-3-yl)methanone], the values for the IC50 (on NSD2 [1-1365]; in experiment [1]; in experiment [2]) were 10 to 1000 nM, 1360 nM and 6340 nM, respectively.
For `Nc1ncnc2c1ncn2Cc1cc(-c2ccc(F)c(F)c2)ncc1N1CCC[C@](N)([C@@H](O)C(F)F)C1` [Example 113, (R)-1-((R)-3-amino-1-(4-((6-amino-9H-purin-9-yl)methyl)-6-(3,4-difluorophenyl)pyridin-3-yl)piperidin-3-yl)-2,2-difluoroethan-1-ol], the IC50 at NSD2 [1-1365] was 10 to 1000 nM; in experiment [1] it was 145 nM; in experiment [2], 753 nM.
Consider `Nc1ncnc2c1ncn2Cc1cc(-c2ccc(F)c(F)c2)ncc1N1CCC[C@](N)([C@H](O)C(F)F)C1` [Example 114, (S)-1-((R)-3-amino-1-(4-((6-amino-9H-purin-9-yl)methyl)-6-(3,4-difluorophenyl)pyridin-3-yl)piperidin-3-yl)-2,2-difluoroethan-1-ol], for which the IC50 on NSD2 [1-1365] was 10 to 1000 nM; in experiment [1], 443 nM; in experiment [2], 1940 nM.
For `Cc1cc(C(F)F)ccc1-c1cc(Cn2cnc3c(N)ncnc32)c(N2CCC[C@](N)([C@@H](O)C(F)F)C2)cn1` [Example 115, (R)-1-((R)-3-amino-1-(4-((6-amino-9H-purin-9-yl)methyl)-6-(4-(difluoromethyl)-2-methylphenyl)pyridin-3-yl)piperidin-3-yl)-2,2-difluoroethan-1-ol], in that order: 1 to 10 nM, 88 nM and 927 nM.
As to `Nc1ncnc2c1ncn2Cc1cc(-c2ccc(OC(F)F)c(F)c2)ncc1N1CCC[C@](N)([C@H](O)C(F)F)C1` [Example 116, (S)-1-((R)-3-amino-1-(4-((6-amino-9H-purin-9-yl)methyl)-6-(4-(difluoromethoxy)-3-fluorophenyl)pyridin-3-yl)piperidin-3-yl)-2,2-difluoroethan-1-ol], the IC50 at NSD2 [1-1365] was 1 to 10 nM; in experiment [1], 168 nM; in experiment [2], 1350 nM.
For `Cc1cc(F)c(F)cc1-c1cc(Cn2cnc3c(N)ncnc32)c(N2CCC[C@](N)([C@@H](O)C(F)F)C2)cn1` [Example 117, (R)-1-((R)-3-amino-1-(4-((6-amino-9H-purin-9-yl)methyl)-6-(4,5-difluoro-2-methylphenyl)pyridin-3-yl)piperidin-3-yl)-2,2-difluoroethan-1-ol], in that order: 1 to 10 nM, 67 nM and 1320 nM.
For `Nc1ncnc2c1ncn2Cc1cc(-c2ccc(OC(F)F)c(F)c2)ncc1N1CCC[C@](N)([C@@H](O)C(F)F)C1` [Example 119, (R)-1-((R)-3-amino-1-(4-((6-amino-9H-purin-9-yl)methyl)-6-(4-(difluoromethoxy)-3-fluorophenyl)pyridin-3-yl)piperidin-3-yl)-2,2-difluoroethan-1-ol], in that order: 1 to 10 nM, 228 nM and 1490 nM.
With `COc1ccc(-c2cc(Cn3cnc4c(N)ncnc43)c(N3CCC[C@](N)([C@@H](O)C(F)F)C3)cn2)cc1Cl` [Example 121, (R)-1-((R)-3-amino-1-(4-((6-amino-9H-purin-9-yl)methyl)-6-(3-chloro-4-methoxyphenyl)pyridin-3-yl)piperidin-3-yl)-2,2-difluoroethan-1-ol], the figures for the IC50 (on NSD2 [1-1365]; in experiment [1]; in experiment [2]) were 1 to 10 nM, 683 nM and 2610 nM, respectively.
In the case of `Nc1ncnc2c1ncn2Cc1cc(-c2ccc(F)c(Cl)c2)ncc1N1CCC[C@](N)([C@@H](O)C(F)F)C1` [Example 122, (R)-1-((R)-3-amino-1-(4-((6-amino-9H-purin-9-yl)methyl)-6-(3-chloro-4-fluorophenyl)pyridin-3-yl)piperidin-3-yl)-2,2-difluoroethan-1-ol], the values for the IC50 (at NSD2 [1-1365]; in experiment [1]; in experiment [2]) were 1 to 10 nM, 496 nM and 1830 nM, respectively.
Take `Cn1ncc2cc(-c3cc(Cn4cnc5c(N)ncnc54)c(N4CCC[C@](N)([C@@H](O)C(F)F)C4)cn3)c(F)cc21` [Example 123, (R)-1-((R)-3-amino-1-(4-((6-amino-9H-purin-9-yl)methyl)-6-(6-fluoro-1-methyl-1H-indazol-5-yl)pyridin-3-yl)piperidin-3-yl)-2,2-difluoroethan-1-ol]: the IC50 is 1 to 10 nM at NSD2 [1-1365], 1490 nM in experiment [1] and 7850 nM in experiment [2].
For `Nc1ncnc2c1ncn2Cc1cc(-c2ccc(Cl)c(F)c2)ncc1N1CCC[C@](N)([C@@H](O)C(F)F)C1` [Example 124, (R)-1-((R)-3-amino-1-(4-((6-amino-9H-purin-9-yl)methyl)-6-(4-chloro-3-fluorophenyl)pyridin-3-yl)piperidin-3-yl)-2,2-difluoroethan-1-ol], in that order: 1 to 10 nM, 159 nM and 848 nM.
For `COc1ccc(-c2cc(Cn3cnc4c(N)ncnc43)c(N3CCC[C@](N)([C@H](O)C(F)F)C3)cn2)cc1Cl` [Example 125, (S)-1-((R)-3-amino-1-(4-((6-amino-9H-purin-9-yl)methyl)-6-(3-chloro-4-methoxyphenyl)pyridin-3-yl)piperidin-3-yl)-2,2-difluoroethan-1-ol], in that order: 1 to 10 nM, 775 nM and 3950 nM.
Regarding `Cc1ccc(-c2cc(Cn3cnc4c(N)ncnc43)c(N3CCC[C@](N)([C@@H](O)C(F)F)C3)cn2)c(C)c1` [Example 126, (R)-1-((R)-3-amino-1-(4-((6-amino-9H-purin-9-yl)methyl)-6-(2,4-dimethylphenyl)pyridin-3-yl)piperidin-3-yl)-2,2-difluoroethan-1-ol], the figures for the IC50 (at NSD2 [1-1365]; in experiment [1]; in experiment [2]) were 1 to 10 nM, 469 nM and 1110 nM, respectively.
With `COc1ccc(-c2cc(Cn3cnc4c(N)ncnc43)c(N3CCC[C@](N)([C@H](O)C(F)F)C3)cn2)cc1F` [Example 127, (S)-1-((R)-3-amino-1-(4-((6-amino-9H-purin-9-yl)methyl)-6-(3-fluoro-4-methoxyphenyl)pyridin-3-yl)piperidin-3-yl)-2,2-difluoroethan-1-ol], the figures for the IC50 (at NSD2 [1-1365]; in experiment [1]; in experiment [2]) were 1 to 10 nM, 262 nM and 901 nM, respectively.
With `Nc1ncnc2c1ncn2Cc1cc(-c2cc(F)c(OC(F)F)cc2F)ncc1N1CCC[C@](N)([C@H](O)C(F)F)C1` [Example 128, (S)-1-((R)-3-amino-1-(4-((6-amino-9H-purin-9-yl)methyl)-6-(4-(difluoromethoxy)-2,5-difluorophenyl)pyridin-3-yl)piperidin-3-yl)-2,2-difluoroethan-1-ol], the IC50 at NSD2 [1-1365] is 1 to 10 nM; in experiment [1], 60 nM; in experiment [2] it was 693 nM.
Take `Nc1ncnc2c1ncn2Cc1cc(C2CCCCC2)ncc1N1CCC[C@](N)([C@@H](O)C(F)F)C1` [Example 130, (R)-1-((R)-3-amino-1-(4-((6-amino-9H-purin-9-yl)methyl)-6-cyclohexylpyridin-3-yl)piperidin-3-yl)-2,2-difluoroethan-1-ol]: the IC50 was 1 to 10 nM on NSD2 [1-1365], 321 nM in experiment [1] and 3520 nM in experiment [2].
For `COc1ccc(-c2cc(Cn3cnc4c(N)ncnc43)c(N3CCC[C@](N)([C@@H](O)C(F)F)C3)cn2)cc1F` [Example 131, (R)-1-((R)-3-amino-1-(4-((6-amino-9H-purin-9-yl)methyl)-6-(3-fluoro-4-methoxyphenyl)pyridin-3-yl)piperidin-3-yl)-2,2-difluoroethan-1-ol], in that order: 1 to 10 nM, 142 nM and 887 nM.
Consider `Nc1ncnc2c1ncn2Cc1cc(-c2ccc(C(F)F)cc2F)ncc1N1CCC[C@](N)([C@@H](O)C(F)F)C1` [Example 132, (R)-1-((R)-3-amino-1-(4-((6-amino-9H-purin-9-yl)methyl)-6-(4-(difluoromethyl)-2-fluorophenyl)pyridin-3-yl)piperidin-3-yl)-2,2-difluoroethan-1-ol], for which the IC50 at NSD2 [1-1365] was 1 to 10 nM; in experiment [1] it was 264 nM; in experiment [2], 1230 nM.
